Results from patent US20110046102A1, “AZABICYCLIC COMPOUNDS, PREPARATION THEREOF AND USE OF SAME AS DRUGS, ESPECIALLY BETA-LACTAMASE INHIBITORS” (Novexel, priority 2008, published 2011).
Structures can show the parent of a compound that is named as a salt.

Assays:
E. coli TEM1 β-lactamase = molecular target: T1, E. coli TEM1 β-lactamase (Escherichia coli, UniProt P62593); experiment: β-lactamase inhibiting activity on isolated enzyme (Nitrocefin hydrolysis), TEM1; type: biochemical; conditions: 5 min pre-incubation, 100 μM Nitrocefin, pH 7.0, 37° C., mean of at least 2 experiments, read-out: IC50 enzyme inhibition
T1 construct: The β-lactamases are isolated from bacterial strains resistant to penicillins and cephalosporins; endogenous in cells; host or cells: E. coli 250HT21 (soluble fraction of French-press lysate)
T1 sequence (P62593 24-286 limits assumed): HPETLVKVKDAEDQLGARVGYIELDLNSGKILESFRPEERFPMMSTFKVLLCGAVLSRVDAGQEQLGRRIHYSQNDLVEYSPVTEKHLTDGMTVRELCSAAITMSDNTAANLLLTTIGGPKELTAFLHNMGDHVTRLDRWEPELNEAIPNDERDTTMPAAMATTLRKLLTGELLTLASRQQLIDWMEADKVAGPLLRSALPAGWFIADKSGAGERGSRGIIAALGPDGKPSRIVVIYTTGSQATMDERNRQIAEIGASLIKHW
Experimental: (§1) A. Preparation of Tem-1 and P99 β-lactamases
(§2) The β-lactamases are isolated from bacterial strains resistant to penicillins and cephalosporins (Tem 1 and P99 are respectively produced by E. coli 250HT21 and E.Cloacae 293 HT6).
(§3) The bacteria are cultured in 37g/l brain-heart infusion (DIFCO), at 37° C. They are harvested at the end of the exponential phase, cooled and centrifuged. The bacterial residues are dissolved in 50 mM sodium phosphate buffer pH 7.0 and again centrifuged. The bacteria are dissolved in two volumes of this same buffer and lysed using a French-Press held at 4° C. After centrifuging 1 h at 100 000g, at 4° C., the supernatants containing the soluble fraction of the bacterial extracts are collected and frozen to −80° C.
(§4) B. Determination β-lactamase Activity
(§5) The method uses Nitrocefin (OXOID) as substrate, a chromogenic cephalosporin, whose hydrolysis product by β-lactamases is red and absorbed at 485 nm.
(§6) β-lactamase activity is determined kinetically by measuring the variation in absorbance at 485 nm resulting from hydrolysis of the substrate on a plate spectrophotometer (Spectra Max Plus by Molecular Devices). Experiments are conducted at 37° C. The quantity of enzyme was normalized and measurements are taken at initial velocity.
(§7) C. Determination of β-Lactamase Inhibiting Activity
(§8) The measurements are taken with pre-incubation of the enzyme and of the inhibitor (5 min). The products are assayed at 11 concentrations. The reaction mixture contains 100 μM Nitrocefin and 50 mM sodium phosphate buffer, pH 7.0, and 0.1 mg/mL bovine serum albumin.
(§9) Hydrolysis velocities are measured with and without inhibitor. The inhibitor concentration is determined which inhibits 50% of the Nitrocefin hydrolysis reaction by the enzyme (IC50). Data is processed using GraFit software (Erithacus Software). The IC50 values are the mean of the IC50s obtained in at least 2 different experiments.

[1] = molecular target: T2, E. cloacae P99 β-lactamase (Enterobacter cloacae, UniProt P05364); experiment: β-lactamase inhibiting activity on isolated enzyme (Nitrocefin hydrolysis), P99; type: biochemical; conditions: 5 min pre-incubation, 100 μM Nitrocefin, pH 7.0, 37° C., mean of at least 2 experiments, read-out: IC50 enzyme inhibition
T2 construct: The β-lactamases are isolated from bacterial strains resistant to penicillins and cephalosporins; endogenous in cells; host or cells: E. cloacae 293HT6 (soluble fraction of French-press lysate)
T2 sequence (P05364 21-381): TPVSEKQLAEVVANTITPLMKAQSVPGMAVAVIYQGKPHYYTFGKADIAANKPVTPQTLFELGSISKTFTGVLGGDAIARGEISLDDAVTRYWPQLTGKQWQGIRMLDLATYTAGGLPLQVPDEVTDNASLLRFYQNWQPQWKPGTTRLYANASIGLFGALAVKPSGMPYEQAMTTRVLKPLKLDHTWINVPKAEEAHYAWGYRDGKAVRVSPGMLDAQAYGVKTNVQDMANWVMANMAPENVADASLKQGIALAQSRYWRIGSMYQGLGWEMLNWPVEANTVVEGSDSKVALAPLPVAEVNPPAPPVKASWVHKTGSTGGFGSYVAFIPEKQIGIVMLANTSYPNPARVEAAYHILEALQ
Experimental: as §1, §2, §3, §4, §5, §6, §7, §8, §9

E. coli 250BE6 (TEM3) = experiment: MIC of ceftazidime alone or with inhibitor, micro-dilution in liquid medium, strain 250BE6; type: cell-based; conditions: 24 h; for MIC of CAZ in combination with inhibitor (CAZ-Inhibitor): E. coli 250BE6 TEM3, inhibitor at constant 4 μg/mL
Experimental: (§10) II/ The evidenced β-lactamase inhibiting activity potentialises the antibacterial activity of antibiotics of β-lactam type, and therefore leads to a synergic effect, as is shown by the results given below which express the minimum inhibitory concentration in vitro (MIC in μg/ml), against a certain number of pathogenic microorganisms, and of combinations of ceftazidime (<<CAZ >>) with formula (I) compounds at a concentration of 4 mg/l. Operations are as follows using the so-called micro-dilution method in liquid medium.
(§11) A series of β-lactam concentrations are prepared in the presence of a constant concentration (4 mg/l) of the product to be assayed, each is then seeded with various bacterial strains.
(§12) After 24-hour incubation in an oven at 37° C. growth inhibition is assessed via the lack of any bacterial growth, which allows determination of the minimum inhibitory concentrations (MICs) for each strain, expressed in milligrams/l.

[2] = tested on: E. cloacae 293HT6 (P99 AmpC); experiment: MIC of ceftazidime alone or with inhibitor, micro-dilution in liquid medium, strain 293HT6; type: cell-based; conditions: 24 h; for MIC of CAZ in combination with inhibitor (CAZ-Inhibitor): inhibitor at constant 4 μg/mL
Experimental: as §10, §11, §12

E. cloacae 293HT4 (AmpC) = experiment: MIC of ceftazidime alone or with inhibitor, micro-dilution in liquid medium, strain 293HT4; type: cell-based; conditions: 24 h; for MIC of CAZ in combination with inhibitor (CAZ-Inhibitor): inhibitor at constant 4 μg/mL
Experimental: as §10, §11, §12

[3] = tested on: C. freundii 261GR6 (AmpC); experiment: MIC of ceftazidime alone or with inhibitor, micro-dilution in liquid medium, strain 261GR6; type: cell-based; conditions: 24 h; for MIC of CAZ in combination with inhibitor (CAZ-Inhibitor): inhibitor at constant 4 μg/mL
Experimental: as §10, §11, §12

[4] = Enterobacter cloacae, no inhibitor, read-out: MIC CAZ alone

Compound	IC50 (E. coli TEM1 β-lactamase) [nM]	IC50 [1] [nM]	MIC of CAZ in combination with inhibitor (CAZ-Inhibitor) (E. coli 250BE6 (TEM3)) [µg/mL]	MIC of CAZ in combination with inhibitor (CAZ-Inhibitor) [2] [µg/mL]	MIC of CAZ in combination with inhibitor (CAZ-Inhibitor) (E. cloacae 293HT4 (AmpC)) [µg/mL]	MIC of CAZ in combination with inhibitor (CAZ-Inhibitor) [3] [µg/mL]	MIC (E. coli 250BE6 (TEM3); Escherichia coli, read-out: MIC CAZ alone) [µg/mL]	MIC [2, 4] [µg/mL]	MIC (E. cloacae 293HT4 (AmpC); [4]) [µg/mL]	MIC ([3]; Citrobacter freundii, no inhibitor, read-out: MIC CAZ alone) [µg/mL]
NC(=O)[C@@H]1CC[C@@H]2CN1C(=O)N2OC(F)C(=O)O (mixture of isomers) [Example 2, trans-(1R,2S,5R)-6-(1-fluoro-2-hydroxy-2-oxoethoxy)-7-oxo-1,6-diazabicyclo[3.2.1]octane-2-carboxamide]	2	4600	0.25	8	8	4	–	–	–	–
CC(C)(O/N=C(\C(=O)N[C@@H]1C(=O)N2C(C(=O)[O-])=C(C[n+]3ccccc3)CS[C@H]12)c1csc(N)n1)C(=O)O [CAZ, ceftazidime, reference compound]	–	–	–	–	–	–	> 32	> 32	> 32	> 32
NC(=O)[C@@H]1CC[C@@H]2CN1C(=O)N2OCC(=O)O [Example 1, trans-(1R,2S,5R)-6-(2-hydroxy-2-oxoethoxy)-7-oxo-1,6-diazabicyclo[3.2.1]octane-2-carboxamide, reference compound]	720	54000	2	>32	>32	>32	–	–	–	–
NC(=O)[C@@H]1CC[C@@H]2CN1C(=O)N2OC(F)(F)C(=O)O [Example 3, Sodium salt of trans-(1R,2S,5R)-6-(1,1-difluoro-2-hydroxy-2-oxoethoxy)-7-oxo-1,6-diazabicyclo[3.2.1]octane-2-carboxamide]	0.8	2200	0.25	1	0.5	1	–	–	–	–
